From ChEMBL document CHEMBL3352633, “β-Lactam estrogen receptor antagonists and a dual-targeting estrogen receptor/tubulin ligand” (J Med Chem, 2014) come the findings set out here.

The test system of experiment [1] is MCF7. In words: Induction of cell cycle arrest in human MCF7 cells assessed as increase in accumulation at sub-G1 phase at >10 nM after 24 hrs by propidium iodide staining based flow cytometry. The format is functional.
For experiment [2], the system named is MCF7. Nature of the experiment: cells. The following applies: Homo sapiens, MCF7, 72 h.
The test system of experiment [3] is MCF7. In words: Induction of cell cycle arrest in human MCF7 cells assessed as accumulation at G2/M phase at 10 uM after 24 hrs by propidium iodide staining based flow cytometry. The format is functional. In general terms: A flow cytometer gives signals particle by particle.
The target in experiment [4] is T1, Estrogen receptor (Homo sapiens, UniProt P03372).
T1 sequence (P03372 whole entry): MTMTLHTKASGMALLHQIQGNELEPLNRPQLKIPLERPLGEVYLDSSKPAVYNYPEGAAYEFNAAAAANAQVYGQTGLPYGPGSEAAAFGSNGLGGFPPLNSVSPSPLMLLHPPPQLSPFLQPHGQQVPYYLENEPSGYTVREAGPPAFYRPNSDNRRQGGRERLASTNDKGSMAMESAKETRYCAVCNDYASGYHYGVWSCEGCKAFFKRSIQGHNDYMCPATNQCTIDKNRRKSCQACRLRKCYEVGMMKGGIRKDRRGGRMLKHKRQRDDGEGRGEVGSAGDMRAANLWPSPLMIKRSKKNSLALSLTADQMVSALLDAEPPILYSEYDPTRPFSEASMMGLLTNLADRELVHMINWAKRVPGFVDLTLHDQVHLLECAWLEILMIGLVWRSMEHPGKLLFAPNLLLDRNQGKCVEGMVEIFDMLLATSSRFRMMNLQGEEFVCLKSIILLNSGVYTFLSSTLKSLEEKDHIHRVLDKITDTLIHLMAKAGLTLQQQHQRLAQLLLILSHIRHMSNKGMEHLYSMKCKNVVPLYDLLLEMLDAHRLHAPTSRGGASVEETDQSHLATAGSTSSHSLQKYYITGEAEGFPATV
Description: (§1) Displacement of fluorescein-labeled estrogen from human recombinant ERalpha by fluorescence polarization based competitive binding affinity assay

In experiment [5] the target is T2, Estrogen receptor beta (Homo sapiens, UniProt Q92731).
Description: (§2) Displacement of fluorescein-labeled estrogen from human recombinant ERbeta by fluorescence polarization based competitive binding affinity assay
Experiment [6] concerns the target T2, Estrogen receptor beta. The source holds these as a separate data set.
Description: as §2
Experiment [7] deals with T1, Estrogen receptor. The source holds these as a separate data set.
Description: as §1
Experiment [8] concerns MCF7. In words: Reduction in Bcl-2 expression in human MCF7 cells at 10 uM after 48 hrs by SDS-PAGE and Western blot method. The experiment is classed as functional, cell-based. A general note: Immunoblotting shows a protein as a band on a membrane.
Experiment [9] concerns MCF7. In words: Reduction in Bcl-2 expression in human MCF7 cells at 10 uM after 72 hrs by SDS-PAGE and Western blot method. The format is functional, cell-based.
In experiment [10] the test system is MCF7. In words: Induction of cell cycle arrest in human MCF7 cells assessed as accumulation at subG1 phase at 1 to 10 uM after 48 hrs by propidium iodide staining based flow cytometry (reference value: 1.9%). The format is functional.
Experiment [11] concerns the target T2, Estrogen receptor beta. Nature of the experiment: Displacement of fluorescein-labeled estrogen from human recombinant ERbeta at 1 uM by fluorescence polarization based competitive binding affinity assay.
In experiment [12] the test system is MCF7. In words: Induction of cell cycle arrest in human MCF7 cells assessed as accumulation at subG1 phase at 1 to 10 uM after 24 hrs by propidium iodide staining based flow cytometry. The format is functional.
The target of experiment [13] is T3, Estrogen receptor (Homo sapiens) (UniProt P03372).
T3 sequence (whole entry): T1 sequence (P03372 whole entry)
Nature of the experiment: Displacement of fluorescein-labeled estrogen from human recombinant ERalpha at 1 uM by fluorescence polarization based competitive binding affinity assay.

Another experiment concerns the target Tubulin (Homo sapiens) (UniProt P68371+Q9H4B7+P0DPH7+P68366+Q13509+Q71U36+P04350+Q3ZCM7+P07437+P68363+Q9BQE3+Q6PEY2+Q13885+Q9BVA1+Q9BUF5). Nature of the experiment: Induction of tubulin depolymerization in human MCF7 cells at 1 uM after 4 hrs by sedimentation assay and Western blotting method. The format is cell-based.
Experiment [14] relates to MCF7. Nature of the experiment: Induction of cell cycle arrest in human MCF7 cells assessed as accumulation at G2/M phase at 1 to 10 uM after 24 hrs by propidium iodide staining based flow cytometry. The format is functional.
The subject of experiment [15] is MCF7. Nature of the experiment: Induction of cell cycle arrest in human MCF7 cells assessed as accumulation at subG1 phase at 1 to 10 uM after 72 hrs by propidium iodide staining based flow cytometry (reference value: 3.7%). The experiment is classed as functional.
In experiment [16] the test system is MCF7. Nature of the experiment: Reduction in Mcl-1 expression in human MCF7 cells at 10 uM after 72 hrs by SDS-PAGE and Western blot method. The experiment is classed as functional, cell-based.
The target of experiment [17] is T1, Estrogen receptor. Nature of the experiment: Antagonist activity at human recombinant ERalpha by FRET assay.
For experiment [18], the target named is T3, Estrogen receptor (Homo sapiens). Nature of the experiment: Agonist activity at human recombinant ERalpha by FRET assay.
Experiment [19] deals with MCF7. Nature of the experiment: Induction of cell cycle arrest in human MCF7 cells assessed as accumulation at G2/M phase at >100 nM after 24 hrs by propidium iodide staining based flow cytometry. The experiment is classed as functional.
Experiment [20] has as its system MCF7. Nature of the experiment: Induction of cell cycle arrest in human MCF7 cells assessed as increase in accumulation at sub-G1 phase at 1 to 10 uM after 24 hrs by propidium iodide staining based flow cytometry. The format is functional.

pIC50: −log10 of the molar value. Activity calls are given as the source filed them. The calls are words filed in the database; no cut-off is given here.

T2 sequence (Q92731 whole entry): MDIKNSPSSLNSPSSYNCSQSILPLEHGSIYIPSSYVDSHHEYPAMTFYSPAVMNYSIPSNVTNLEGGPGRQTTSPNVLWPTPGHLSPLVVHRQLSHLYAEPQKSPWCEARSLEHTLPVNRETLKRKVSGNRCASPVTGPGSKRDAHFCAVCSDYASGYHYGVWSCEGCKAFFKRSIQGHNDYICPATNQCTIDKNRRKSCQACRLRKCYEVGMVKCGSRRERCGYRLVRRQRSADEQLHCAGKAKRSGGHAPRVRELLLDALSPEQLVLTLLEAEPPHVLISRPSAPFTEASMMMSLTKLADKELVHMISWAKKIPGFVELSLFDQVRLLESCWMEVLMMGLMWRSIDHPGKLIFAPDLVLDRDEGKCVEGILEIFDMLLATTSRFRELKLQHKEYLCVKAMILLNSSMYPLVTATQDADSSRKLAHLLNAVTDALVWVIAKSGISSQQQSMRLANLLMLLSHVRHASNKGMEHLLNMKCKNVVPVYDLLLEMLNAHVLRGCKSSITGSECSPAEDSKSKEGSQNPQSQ

`COc1ccc([C@H]2[C@H](C(O)c3ccc(OCCN4CCCC4)cc3)C(=O)N2c2cc(OC)c(OC)c(OC)c2)cc1` (stereo partly specified): the outcome in the experiment with MCF7 [1] and with MCF7 [3] was Active. In addition, the pIC50 with MCF7 [2] is 5.42. Also, the IC50 entry against Estrogen receptor [4] and against Estrogen receptor beta [5] was “Not Active” in each case.

As to `O=C1[C@@H](Oc2ccccc2)[C@H](c2ccc(O)cc2)N1c1ccc(O)cc1` (relative stereo), the pIC50 at Estrogen receptor beta [6] was 5.92; in the experiment with MCF7 [2] it was less than 4.30; against Estrogen receptor [7], 6.85.

Molecule `COc1ccc([C@@H]2[C@@H](c3ccc(C(O)c4ccc(OCCN5CCCC5)cc4)cc3)C(=O)N2c2ccc(OC)cc2)cc1` (stereo partly specified) showed a pIC50 in the experiment with MCF7 [2] of 5.33.

Consider `COc1ccc([C@H]2[C@H](C(O)c3ccc(O)cc3)C(=O)N2c2cc(OC)c(OC)c(OC)c2)cc1` (stereo partly specified), for which the outcome with MCF7 [8], with MCF7 [9], on Tubulin (Homo sapiens), in the experiment with MCF7 [14] and in the experiment on MCF7 [16] was Active. Further, the Activity in the experiment on MCF7 [10] is given as 9.3%; in the experiment with MCF7 [15] it was 17%. For the same molecule, the inhibition stood at 94% at Estrogen receptor beta [11] and 93% in [13]. Further, the result with MCF7 [12] was inactive. Also, the negative logarithm of the IC50 (pIC50) is 7.82 against Estrogen receptor beta [6], 6.68 with MCF7 [2] and 8.10 on Estrogen receptor [7].

As for `O=C1C[C@H](c2ccc(O)cc2)N1c1ccc(O)cc1`, the pIC50 against Estrogen receptor beta [6] was 4.25; with MCF7 [2] it was less than 4.30; against Estrogen receptor [7] it was 4.89.

Take `O=C1[C@@H](C(O)c2ccc(O)cc2)[C@H](c2ccc(O)cc2)N1c1ccc(O)cc1` (stereo partly specified): the values for the inhibition (at Estrogen receptor beta [11]; in experiment [13]) were 43% and 40%, respectively. The molecule also gave a pIC50 in the experiment with MCF7 [2] of 4.31.

As for `COc1cc([C@H]2[C@H](c3ccc(O)cc3)C(=O)N2c2ccc(O)cc2)cc(OC)c1OC` (relative stereo), the pIC50 against Estrogen receptor beta [6] was 3.84; in the experiment on MCF7 [2], less than 4.30; on Estrogen receptor [7], 4.74.

Take `O=C1N(c2ccc(O)cc2)[C@@H](c2ccc(O)cc2)C1(c1ccccc1)c1ccccc1`: the pIC50 was 7.72 against Estrogen receptor beta [6], less than 4.30 in the experiment on MCF7 [2] and 7.40 on Estrogen receptor [7].

As for `COc1cc([C@@H]2C(=O)N(c3ccc(O)cc3)[C@H]2c2ccc(O)cc2)cc(OC)c1OC` (relative stereo), the results for the pIC50 on Estrogen receptor beta [6], in the experiment on MCF7 [2] and on Estrogen receptor [7] were 4.64, less than 4.30 and 5.83, respectively.

With `O=C1[C@@H](c2ccc(O)cc2)[C@H](c2ccc(O)cc2)N1c1ccc(O)cc1` (relative stereo), the pIC50 is 5.85 at Estrogen receptor [17], 5.32 against Estrogen receptor beta [6], less than 4.30 in the experiment with MCF7 [2] and 5.96 against Estrogen receptor [7]. Also, in [18], the outcome was inactive.

As to `COC(=O)Nc1nc2cc(C(=O)c3cccs3)ccc2[nH]1`, the outcome at Tubulin (Homo sapiens) was Active.

Regarding `O=C1[C@@H](c2ccc3ccccc3c2)[C@H](c2ccc(O)cc2)N1c1ccc(O)cc1` (relative stereo), the pIC50 against Estrogen receptor beta [6] was 5.96; with MCF7 [2] it was less than 4.30; on Estrogen receptor [7], 6.82.

As for `COc1ccc([C@H]2[C@H](C(O)c3ccc(O)cc3)C(=O)N2c2ccc(OC)cc2)cc1` (stereo partly specified), the figures for the inhibition (at Estrogen receptor beta [11]; in experiment [13]) were 75% and 37%, respectively. In addition, the pIC50 in the experiment with MCF7 [2] is 4.49.

Consider `O=C1[C@@H](c2ccccc2)[C@H](c2ccc(O)cc2)N1c1ccc(O)cc1` (relative stereo), for which the pIC50 is 6.01 at Estrogen receptor beta [6], less than 4.30 with MCF7 [2] and 6.64 at Estrogen receptor [7].

Turning to `COc1ccc([C@H]2CC(=O)N2c2cc(OC)c(OC)c(OC)c2)cc1`, the outcome with MCF7 [19] and with MCF7 [20] was Active. For the same molecule, the IC50 entry on Estrogen receptor [4] and at Estrogen receptor beta [5] was “Not Active” throughout.

Usually pIC50 stands for the IC50 on a negative log10 scale, so that one unit is a factor of ten. In general, inhibition refers to the change of the read-out against control, counted positive when it falls.
